# Reference: US11938121B2, “Treatment of infections and biofilm formation using a cellulose synthase inhibitor” (Purdue Research Foundation, priority 2020, dated 2024)
# Tests used:
# Arabidopsis Col-0 = Arabidopsis Col-0 root growth and root swelling assay; format: in vivo, Arabidopsis thaliana; settings: same dosage as ES20
# Description: During the primary screening, we sowed Col-0 seeds on solid growth medium supplemented with 0.1% DMSO or 3 mg/L of different compounds with molar concentrations ranging from 5-10 μM. After 7 days of growth, we imaged the seedlings and evaluated the inhibitory effect of each chemical. Because disrupting cellulose biosynthesis by treating plants with a cellulose biosynthesis inhibitor or introducing mutations in the cellulose biosynthesis pathway often leads to root growth inhibition, root swelling, as well as ectopic lignin accumulation (Arioli et al., Science 1998, 279, 717-720; Huang et al., 2020), we first evaluated the ability of the compounds to inhibit root growth and cause root swelling. […] We grew wildtype seedlings on growth medium supplemented with DMSO (0.1%) or different concentrations of ES20 analogs for 7 days and quantified the crystalline cellulose content in root cell wall. […]
# To test the inhibitory effects of different chemicals on plant growth, wild-type Arabidopsis Col-0 plants were used. […] To quantify the inhibitory effects of different ES20 active analogs on the root growth of Arabidopsis wildtype, EMS mutants, and transgenic plants expressing mutated AtCESA6 in prc1-1 background, sterilized Col-0, mutants, and transgenic plants seeds were sown on gridded Petri plates containing ½-strength MS medium supplemented with different concentrations of ES20 analogs. […]
# [1] = test system: AtCESA6 (cesa6 alleles es20r1-es20r15); assay: Root growth of EMS-induced cesa6 mutants es20r1-es20r15 on ES20 analogs; format: in vivo, Arabidopsis thaliana; settings: compared with wild-type/control plants
# Excerpt: A subset of active ES20 analogs likely target the catalytic domain of AtCESA6. […] Since ES20 and the nine active ES20 analogs share highly similar structures, we reasoned whether these active analogs target AtCESA6 as well. We therefore examined the growth of es20r1-es20r15 plants in the presence of nine active ES20 analogs compared to wild-type plants.
# To test the inhibitory effects of different chemicals on plant growth, wild-type Arabidopsis Col-0 plants were used. The seeds of plants used for growth assays or live cell imaging were sequentially sterilized with 50% bleach and 75% ethanol. […] To quantify the inhibitory effects of different ES20 active analogs on the root growth of Arabidopsis wildtype, EMS mutants, and transgenic plants expressing mutated AtCESA6 in prc1-1 background, sterilized Col-0, mutants, and transgenic plants seeds were sown on gridded Petri plates containing ½-strength MS medium supplemented with different concentrations of ES20 analogs. […] The plates were scanned using an Epson Perfection V550 scanner after 7 days of growth, and the root lengths of plants were quantified using ImageJ software. […] The Petri dishes were scanned, and hypocotyl length was measured using ImageJ. Transgenic plants expressing fluorescence-tagged PIN2, PIP2a, HDEL, VHA-a1, and GOT1p were as reported previously (Xu and Scheres, Plant Cell, 2005, 17, 525-536).
# Komagataeibacter xylinus [2] = assay: K. xylinus cell growth on HS solid medium; format: cell-based; settings: 6 days
# Excerpt: Based on primary protein sequence analysis and a comparison of three-dimensional protein structures, the catalytic sites of cellulose synthases are highly conserved across kingdoms (Huang et al., 2020, Purushotham et al., 2020). The amino acids that are directly involved in glucan chain initiation, elongation, and translocation are conserved between plant and bacterial cellulose synthases (Huang et al., 2020). Based on the conservation of catalytic sites in cellulose synthases, we hypothesized that ES20 and ES20-1 would inhibit bacterial cellulose biosynthesis as well. We chose to test the effects of ES20 and ES20-1 on cell growth and cellulose production in Komagataeibacter xylinus (K. xylinus, previously known as Gluconacetobacter xylinus) because this bacterium produces abundant cellulose. We first tested whether ES20 and ES20-1 affect K. xylinus cell growth. We grew K. xylinus cells in liquid […] (HS) medium and then we inoculated 20 μL of series diluted culture to HS solid growth medium supplemented with DMSO (0.1%) or different concentrations of ES20 and ES20-1. […] We found ES20 and ES20-1 affect K. xylinus colony morphology as well. […] Wrinkles radiating structure is often observed in cellulose-producing bacteria strains and this structure is often affected when cellulose biosynthesis is disrupted.
# Komagataeibacter xylinus (previously named Gluconacetobacter xylinus) ATCC strain 700178 was obtained from ATCC (Manassas, Va., USA) to evaluate cellulose production. HS (Hestrin and Schramm) medium was used for culture; HS liquid medium contains 2.0% glucose (w/v), 0.5% yeast extract (w/v), 0.5% peptone (w/v), 0.27% Na2HPO4 (w/v), and 0.15% citric acid (w/v), pH 5.0, and HS solid medium was solidified with 1.8% agar (w/v). To prepare the initial inoculation source, a single K. xylinus colony grown on HS solid medium was transferred to HS liquid medium and cultured at 26° C. for 5 days under static conditions. We used cells from the bottom of the liquid culture as the initial inoculation source to avoid biofilm aggregates at the air-liquid interface. To test the effect of ES20 and ES20-1 on the bacteria growth, initial inoculation source was series diluted and 20 μL culture from each diluted solution was dropped on HS solid medium supplemented with DMSO (0.1%) or different concentrations of ES20 and ES20-1 and cultured at 26° C. for 6 days after the dropped culture was completely dry. To test the effects of ES20 and ES20-1 on cellulose production, the prepared inoculation source was inoculated at a dilution ratio of 1:1000 dilution in HS liquid medium supplemented with 0.1% DMSO or 20 μM of ES20 or ES20-1. Static cultivation was carried out in a 26° C. incubator, and agitated cultivation was carried out at 26° C. with shaking at 220 rpm. […]
# Komagataeibacter xylinus [3] = assay: K. xylinus cellulose production in liquid culture; format: cell-based; settings: 20 μM
# Excerpt: We next grew K. xylinus cells in growth medium supplemented with DMSO, ES20, or ES20-1 under agitation. […] We also grew K. xylinus in liquid medium supplemented with DMSO, ES20, or ES20-1 under static cultivation conditions. Without agitation, pellicles containing cellulose often form at the air-liquid interface. […] To quantify the effects of ES20 and ES20-1 on cellulose production, we harvested the pellicles from these cultures and isolated cellulose from the pellicles.
# Komagataeibacter xylinus (previously named Gluconacetobacter xylinus) ATCC strain 700178 was obtained from ATCC (Manassas, Va., USA) to evaluate cellulose production. HS (Hestrin and Schramm) medium was used for culture; HS liquid medium contains 2.0% glucose (w/v), 0.5% yeast extract (w/v), 0.5% peptone (w/v), 0.27% Na2HPO4 (w/v), and 0.15% citric acid (w/v), pH 5.0, and HS solid medium was solidified with 1.8% agar (w/v). To prepare the initial inoculation source, a single K. xylinus colony grown on HS solid medium was transferred to HS liquid medium and cultured at 26° C. for 5 days under static conditions. We used cells from the bottom of the liquid culture as the initial inoculation source to avoid biofilm aggregates at the air-liquid interface. To test the effect of ES20 and ES20-1 on the bacteria growth, initial inoculation source was series diluted and 20 μL culture from each diluted solution was dropped on HS solid medium supplemented with DMSO (0.1%) or different concentrations of ES20 and ES20-1 and cultured at 26° C. for 6 days after the dropped culture was completely dry. To test the effects of ES20 and ES20-1 on cellulose production, the prepared inoculation source was inoculated at a dilution ratio of 1:1000 dilution in HS liquid medium supplemented with 0.1% DMSO or 20 μM of ES20 or ES20-1. Static cultivation was carried out in a 26° C. incubator, and agitated cultivation was carried out at 26° C. with shaking at 220 rpm. To isolate cellulose from pellicles, the pellicles were removed from liquid culture, washed several times with deionized water, and soaked in 0.1 M NaOH at 80° C. for 2 h. The pellicles were washed several times with deionized water to completely remove the alkali. The purified cellulose was dried at 60° C. for ˜1 day until a constant dry mass was reached.
# [4] = 5 days static cultivation, vs DMSO
structure (smiles),measurement,setting,value
Cc1ccccc1C(=O)NNC(=S)NC(=O)c1ccccc1 [ES20-1],root growth inhibition compared with ES20,Arabidopsis Col-0,more strongly inhibited root growth than ES20
same,sensitivity of es20r1-es20r15 mutants in growth,[1],"All 15 mutants, which show reduced sensitivity to ES20, also showed reduced sensitivity"
same,K. xylinus cell growth inhibition,Komagataeibacter xylinus [2]; 20 μM and 50 μM,inhibit K. xylinus cell growth at both 20 μM and 50 μM concentrations
same,K. xylinus colony morphology (wrinkles radiating structures),Komagataeibacter xylinus [2]; 20 μM,the wrinkles are not obvious
same,size of cellulose clusters,"Komagataeibacter xylinus [3]; 5 days agitated cultivation, vs DMSO",smaller
same,dry mass of cellulose from pellicles,"Komagataeibacter xylinus [3]; 5 days static cultivation, mean±SD, n=9",346 ± 152 mg/L
same,decrease of dry mass of cellulose from pellicles,Komagataeibacter xylinus [3]; [4],~30%
same,pellicle thickness,Komagataeibacter xylinus [3]; [4],pellicles in cultures containing DMSO are thicker
